Tests used:
[1] = biological target: Epidermal growth factor receptor (Homo sapiens, UniProt P00533); assay type: single protein
Description: Inhibition of recombinant wild type EGFR (696 to C-terminal residues) (unknown origin) preincubated for 30 mins followed by poly (Glu-Tyr) biotinylated peptide substrate addition measured after 30 mins in presence of ATP by ELISA

[2] = biological target: Epidermal growth factor receptor (Homo sapiens, UniProt P00533, L858R/T790M); experiment: Inhibition of recombinant EGFR (unknown origin) T790M/L858R double mutant preincubated for 30 mins followed by poly (Glu-Tyr) biotinylated peptide substrate addition measured after 30 mins in presence of ATP by ELISA
Chain of Epidermal growth factor receptor (Homo sapiens, UniProt P00533, L858R/T790M) (P00533 25-1210 T790M/L858R limits assumed): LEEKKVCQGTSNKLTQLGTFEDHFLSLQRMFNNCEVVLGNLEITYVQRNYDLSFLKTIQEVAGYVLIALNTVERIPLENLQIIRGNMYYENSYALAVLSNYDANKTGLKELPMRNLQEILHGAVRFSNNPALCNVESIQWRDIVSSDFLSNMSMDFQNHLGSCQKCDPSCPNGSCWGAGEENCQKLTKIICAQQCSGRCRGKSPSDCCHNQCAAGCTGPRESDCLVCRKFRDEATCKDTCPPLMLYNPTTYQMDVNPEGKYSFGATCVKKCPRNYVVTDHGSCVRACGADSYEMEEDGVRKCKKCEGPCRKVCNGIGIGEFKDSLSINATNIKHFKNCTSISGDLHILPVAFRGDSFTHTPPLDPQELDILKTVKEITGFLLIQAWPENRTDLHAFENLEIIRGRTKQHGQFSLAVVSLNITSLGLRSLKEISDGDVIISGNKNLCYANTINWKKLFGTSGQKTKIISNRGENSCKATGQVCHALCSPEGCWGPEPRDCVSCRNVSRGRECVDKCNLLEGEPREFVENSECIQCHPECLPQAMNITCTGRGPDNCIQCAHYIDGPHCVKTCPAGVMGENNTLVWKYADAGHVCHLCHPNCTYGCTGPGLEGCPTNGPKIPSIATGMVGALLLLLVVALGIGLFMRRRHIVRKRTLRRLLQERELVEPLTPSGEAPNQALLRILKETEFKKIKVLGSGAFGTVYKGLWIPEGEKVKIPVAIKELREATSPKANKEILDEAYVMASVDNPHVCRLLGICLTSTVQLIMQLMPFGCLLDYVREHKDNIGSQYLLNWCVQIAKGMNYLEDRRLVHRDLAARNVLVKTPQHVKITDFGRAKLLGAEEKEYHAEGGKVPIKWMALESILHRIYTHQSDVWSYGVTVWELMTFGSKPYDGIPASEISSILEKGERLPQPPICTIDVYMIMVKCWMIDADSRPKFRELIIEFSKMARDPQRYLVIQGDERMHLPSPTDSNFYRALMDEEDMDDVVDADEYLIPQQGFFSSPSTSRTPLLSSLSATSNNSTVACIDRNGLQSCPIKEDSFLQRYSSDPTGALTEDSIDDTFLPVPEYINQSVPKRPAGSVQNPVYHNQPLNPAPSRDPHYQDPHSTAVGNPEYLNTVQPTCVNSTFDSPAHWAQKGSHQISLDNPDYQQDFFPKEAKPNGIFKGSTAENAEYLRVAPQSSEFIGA

Chain of Epidermal growth factor receptor (Homo sapiens, UniProt P00533) (P00533 whole entry): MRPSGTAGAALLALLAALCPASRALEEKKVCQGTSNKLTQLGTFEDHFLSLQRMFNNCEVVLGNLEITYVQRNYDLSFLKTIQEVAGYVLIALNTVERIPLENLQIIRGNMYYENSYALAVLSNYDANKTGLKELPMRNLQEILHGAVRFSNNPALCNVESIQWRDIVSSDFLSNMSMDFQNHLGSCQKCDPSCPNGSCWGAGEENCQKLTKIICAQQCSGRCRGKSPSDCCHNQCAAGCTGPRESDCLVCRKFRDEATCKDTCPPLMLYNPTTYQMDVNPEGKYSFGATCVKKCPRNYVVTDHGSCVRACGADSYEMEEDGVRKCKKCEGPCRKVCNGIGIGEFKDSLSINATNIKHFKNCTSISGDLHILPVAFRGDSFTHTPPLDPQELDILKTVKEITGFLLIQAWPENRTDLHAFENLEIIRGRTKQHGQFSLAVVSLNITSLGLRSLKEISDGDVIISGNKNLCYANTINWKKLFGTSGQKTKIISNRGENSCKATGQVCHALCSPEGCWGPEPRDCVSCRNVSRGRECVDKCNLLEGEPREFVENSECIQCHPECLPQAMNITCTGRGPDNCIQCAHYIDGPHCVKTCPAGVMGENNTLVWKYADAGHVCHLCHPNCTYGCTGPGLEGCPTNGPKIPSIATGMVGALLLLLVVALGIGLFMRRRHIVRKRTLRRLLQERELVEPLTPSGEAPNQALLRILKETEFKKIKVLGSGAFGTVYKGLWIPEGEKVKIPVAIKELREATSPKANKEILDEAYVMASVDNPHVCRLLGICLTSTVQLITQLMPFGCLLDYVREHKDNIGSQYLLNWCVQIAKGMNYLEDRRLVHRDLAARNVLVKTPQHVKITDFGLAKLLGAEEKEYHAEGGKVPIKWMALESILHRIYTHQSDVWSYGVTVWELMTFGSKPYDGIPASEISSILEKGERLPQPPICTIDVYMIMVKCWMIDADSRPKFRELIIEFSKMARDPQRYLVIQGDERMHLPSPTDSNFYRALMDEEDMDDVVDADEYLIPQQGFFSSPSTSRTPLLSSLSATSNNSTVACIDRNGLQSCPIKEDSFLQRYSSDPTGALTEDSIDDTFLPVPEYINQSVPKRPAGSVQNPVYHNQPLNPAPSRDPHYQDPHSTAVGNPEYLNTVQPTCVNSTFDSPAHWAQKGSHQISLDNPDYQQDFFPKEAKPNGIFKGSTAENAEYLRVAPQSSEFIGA

Row | IC50 [1] [µM] | IC50 [2] [µM] | Compound
1 | 0.842 | > 1 | COc1ccc(-c2c3c4cc(OCCN(C)C)c(OC)cc4oc(=O)c3n3ccc4cc(O)c(OC)cc4c23)cc1O
2 | 0.0478 | 0.0826 | COc1ccc(-c2c3c4cc(O)c(OCCCN(C)C)cc4oc(=O)c3n3ccc4cc(O)c(OC)cc4c23)cc1O
3 | 0.047 | 0.039 | COc1ccc(-c2c3c4cc(OC)c(OCCCNC(=N)N)cc4oc(=O)c3n3ccc4cc(O)c(OC)cc4c23)cc1O
4 | 0.0318 | 0.0089 | COc1ccc(-c2c3c4cc(OCCCN(C)C)c(OCCCN(C)C)cc4oc(=O)c3n3ccc4cc(O)c(OC)cc4c23)cc1O
5 | > 1 | > 1 | COc1ccc(-c2c3c4cc(OCCCN5CCOCC5)c(OCCCN5CCOCC5)cc4oc(=O)c3n3ccc4cc(O)c(OC)cc4c23)cc1O
6 | > 1 | > 1 | COc1ccc(-c2c3c4cc(OC)c(OC)cc4oc(=O)c3n3ccc4cc(O)c(OC)cc4c23)cc1O
7 | 0.215 | 0.188 | COc1ccc(-c2c3c4cc(OC)c(OCCCN(C)C)cc4oc(=O)c3n3ccc4cc(O)c(OC)cc4c23)cc1O
8 | 0.249 | 0.397 | COc1ccc(-c2c3c4cc(O)c(OC)cc4oc(=O)c3n3ccc4cc(O)c(OC)cc4c23)cc1O
9 | 0.595 | 0.56 | COc1ccc(-c2c3c4cc(OC)c(OCCN(C)C)cc4oc(=O)c3n3ccc4cc(O)c(OC)cc4c23)cc1O
10 | 0.191 | 0.233 | COc1ccc(-c2c3c4cc(OCCN(C)C)c(OCCN(C)C)cc4oc(=O)c3n3ccc4cc(O)c(OC)cc4c23)cc1O
11 | > 1 | > 1 | COc1ccc(-c2c3c4cc(OC)c(OCCNC(=N)N)cc4oc(=O)c3n3ccc4cc(O)c(OC)cc4c23)cc1O

— ChEMBL document CHEMBL4177688, “Design, synthesis, and evaluation of A-ring-modified lamellarin N analogues as noncovalent inhibitors of the EGFR T790M/L858R mutant” (Bioorg Med Chem, 2017)
